#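 Cultured in 96-well plates, cells were exposed to test compound for 48 hours across five concentrations. The concentration for full growth arrest is given as TGI.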
# What was measured:
# Test in all cases: DTP human tumour cell line panel, 48 h
# HT29 colon = test system: HT29 colon
# SK-OV-3 ovarian = test system: SK-OV-3 ovarian
# MOLT-4 leukemia = test system: MOLT-4 leukemia
# M14 melanoma = test system: M14 melanoma
# SNB-78 CNS = test system: SNB-78 CNS
# SK-MEL-2 melanoma = test system: SK-MEL-2 melanoma
# 786-0 renal = test system: 786-0 renal
# IGROV1 ovarian = test system: IGROV1 ovarian
# SF-539 CNS = test system: SF-539 CNS
# NCI-H226 lung = test system: NCI-H226 lung
# HL-60(TB) leukemia = test system: HL-60(TB) leukemia
# HOP-18 NSCLC = test system: HOP-18 NSCLC
# SK-MEL-5 melanoma = test system: SK-MEL-5 melanoma
# CCRF-CEM leukemia = test system: CCRF-CEM leukemia
# OVCAR-4 ovarian = test system: OVCAR-4 ovarian
# K-562 leukemia = test system: K-562 leukemia
# CAKI-1 renal = test system: CAKI-1 renal
# HCC-2998 colon = test system: HCC-2998 colon
# LOX IMVI melanoma = test system: LOX IMVI melanoma
# KM20L2 colon = test system: KM20L2 colon
# KM12 colon = test system: KM12 colon
# HCT-116 colon = test system: HCT-116 colon
# EKVX NSCLC = test system: EKVX NSCLC
# SNB-19 CNS = test system: SNB-19 CNS
# HOP-92 NSCLC = test system: HOP-92 NSCLC
# ACHN renal = test system: ACHN renal
# NCI-H23 lung = test system: NCI-H23 lung
# SF-268 CNS = test system: SF-268 CNS
# RPMI-8226 leukemia = test system: RPMI-8226 leukemia
# UACC-257 melanoma = test system: UACC-257 melanoma
# TK-10 renal = test system: TK-10 renal
# UO-31 renal = test system: UO-31 renal
# U251 CNS = test system: U251 CNS
# LXFL 529 NSCLC = test system: LXFL 529 NSCLC
# SF-295 CNS = test system: SF-295 CNS
# A498 renal = test system: A498 renal
# A549 NSCLC = test system: A549 NSCLC
# UACC-62 melanoma = test system: UACC-62 melanoma
# XF 498 CNS = test system: XF 498 CNS
# SR leukemia = test system: SR leukemia
# NCI-H460 lung = test system: NCI-H460 lung
# HOP-62 NSCLC = test system: HOP-62 NSCLC
# DLD-1 colon = test system: DLD-1 colon
# OVCAR-5 ovarian = test system: OVCAR-5 ovarian
# MALME-3M melanoma = test system: MALME-3M melanoma
# NCI-H522 lung = test system: NCI-H522 lung
# COLO 205 colon = test system: COLO 205 colon
# DMS 273 small cell lung = test system: DMS 273 small cell lung
# SNB-75 CNS = test system: SNB-75 CNS
# OVCAR-8 ovarian = test system: OVCAR-8 ovarian
# OVCAR-3 ovarian = test system: OVCAR-3 ovarian
# SN12C renal = test system: SN12C renal
# HCT-15 colon = test system: HCT-15 colon
# DMS 114 small cell lung = test system: DMS 114 small cell lung
# RXF 393 renal = test system: RXF 393 renal
# SW-620 colon = test system: SW-620 colon
# SK-MEL-28 melanoma = test system: SK-MEL-28 melanoma
# M19-MEL melanoma = test system: M19-MEL melanoma
# RXF-631 renal = test system: RXF-631 renal
smiles,measurement,setting,value
O=C(CCc1nc(=S)[nH][nH]1)Nc1cccc(C(F)(F)F)c1,TGI,HT29 colon,> 100 µM
same,TGI,SK-OV-3 ovarian,> 100 µM
same,TGI,MOLT-4 leukemia,> 100 µM
same,TGI,M14 melanoma,> 100 µM
same,TGI,SNB-78 CNS,> 100 µM
same,TGI,SK-MEL-2 melanoma,> 100 µM
same,TGI,786-0 renal,> 100 µM
same,TGI,IGROV1 ovarian,> 100 µM
same,TGI,SF-539 CNS,> 100 µM
same,TGI,NCI-H226 lung,> 100 µM
same,TGI,HL-60(TB) leukemia,> 100 µM
same,TGI,HOP-18 NSCLC,> 100 µM
same,TGI,SK-MEL-5 melanoma,> 100 µM
same,TGI,CCRF-CEM leukemia,> 100 µM
same,TGI,OVCAR-4 ovarian,> 100 µM
same,TGI,K-562 leukemia,> 100 µM
same,TGI,CAKI-1 renal,> 100 µM
same,TGI,HCC-2998 colon,> 100 µM
same,TGI,LOX IMVI melanoma,> 100 µM
same,TGI,KM20L2 colon,> 100 µM
same,TGI,KM12 colon,> 100 µM
same,TGI,HCT-116 colon,> 100 µM
same,TGI,EKVX NSCLC,> 100 µM
same,TGI,SNB-19 CNS,> 100 µM
same,TGI,HOP-92 NSCLC,> 100 µM
same,TGI,ACHN renal,> 100 µM
same,TGI,NCI-H23 lung,> 100 µM
same,TGI,SF-268 CNS,> 100 µM
same,TGI,RPMI-8226 leukemia,> 100 µM
same,TGI,UACC-257 melanoma,> 100 µM
same,TGI,TK-10 renal,> 100 µM
same,TGI,UO-31 renal,> 100 µM
same,TGI,U251 CNS,> 100 µM
same,TGI,LXFL 529 NSCLC,> 100 µM
same,TGI,SF-295 CNS,> 100 µM
same,TGI,A498 renal,> 100 µM
same,TGI,A549 NSCLC,> 100 µM
same,TGI,UACC-62 melanoma,> 100 µM
same,TGI,XF 498 CNS,> 100 µM
same,TGI,SR leukemia,> 100 µM
same,TGI,NCI-H460 lung,> 100 µM
same,TGI,HOP-62 NSCLC,> 100 µM
same,TGI,DLD-1 colon,> 100 µM
same,TGI,OVCAR-5 ovarian,> 100 µM
same,TGI,MALME-3M melanoma,> 100 µM
same,TGI,NCI-H522 lung,> 100 µM
same,TGI,COLO 205 colon,> 100 µM
same,TGI,DMS 273 small cell lung,> 100 µM
same,TGI,SNB-75 CNS,> 100 µM
same,TGI,OVCAR-8 ovarian,> 100 µM
same,TGI,OVCAR-3 ovarian,> 100 µM
same,TGI,SN12C renal,> 100 µM
same,TGI,HCT-15 colon,> 100 µM
same,TGI,DMS 114 small cell lung,> 100 µM
same,TGI,RXF 393 renal,> 100 µM
same,TGI,SW-620 colon,28.5 µM
same,TGI,SK-MEL-28 melanoma,> 100 µM
O=C(O)[C@@H](NS(=O)(=O)c1ccc2ccccc2c1)c1ccccc1,TGI,HT29 colon,> 100 µM
same,TGI,SK-OV-3 ovarian,> 100 µM
same,TGI,MOLT-4 leukemia,> 100 µM
same,TGI,M14 melanoma,> 100 µM
same,TGI,M19-MEL melanoma,> 100 µM
same,TGI,SK-MEL-2 melanoma,> 100 µM
same,TGI,786-0 renal,> 100 µM
same,TGI,IGROV1 ovarian,> 100 µM
same,TGI,SF-539 CNS,> 100 µM
same,TGI,HL-60(TB) leukemia,> 100 µM
same,TGI,HOP-18 NSCLC,> 100 µM
same,TGI,CCRF-CEM leukemia,> 100 µM
same,TGI,OVCAR-4 ovarian,> 100 µM
same,TGI,K-562 leukemia,> 100 µM
same,TGI,CAKI-1 renal,> 100 µM
same,TGI,HCC-2998 colon,> 100 µM
same,TGI,LOX IMVI melanoma,> 100 µM
same,TGI,KM20L2 colon,> 100 µM
same,TGI,SNB-19 CNS,> 100 µM
same,TGI,HOP-92 NSCLC,> 100 µM
same,TGI,ACHN renal,> 100 µM
same,TGI,NCI-H23 lung,> 100 µM
same,TGI,SF-268 CNS,> 100 µM
same,TGI,RPMI-8226 leukemia,> 100 µM
same,TGI,UACC-257 melanoma,> 100 µM
same,TGI,RXF-631 renal,> 100 µM
same,TGI,UO-31 renal,> 100 µM
same,TGI,U251 CNS,> 100 µM
same,TGI,LXFL 529 NSCLC,> 100 µM
same,TGI,A498 renal,> 100 µM
same,TGI,UACC-62 melanoma,> 100 µM
same,TGI,XF 498 CNS,> 100 µM
same,TGI,NCI-H460 lung,> 100 µM
same,TGI,DLD-1 colon,> 100 µM
same,TGI,OVCAR-5 ovarian,> 100 µM
same,TGI,MALME-3M melanoma,> 100 µM
same,TGI,NCI-H522 lung,> 100 µM
same,TGI,COLO 205 colon,> 100 µM
same,TGI,DMS 273 small cell lung,> 100 µM
same,TGI,SNB-75 CNS,> 100 µM
same,TGI,SN12C renal,> 100 µM
same,TGI,HCT-15 colon,> 100 µM
same,TGI,RXF 393 renal,> 100 µM
same,TGI,SK-MEL-28 melanoma,> 100 µM

# From PubChem BioAssay (NCI)
